The record followed here is patent US20240115745A1, “COMPOUNDS COMPRISING A FIBROBLAST ACTIVATION PROTEIN LIGAND AND USE THEREOF” (3B PHARMACEUTICALS GMBH, priority 2021, published 2024).

The target of one test is T1, Recombinant human FAP (Homo sapiens, UniProt Q12884).
T1 construct: purchased R&D systems 3715-SE
The test can be described thus: FRET-based FAP protease activity assay. The test is classed as biochemical.

Test [1] concerns the target T2, FAP-expressing human WI-38 fibroblasts (Homo sapiens, UniProt Q12884).
T2 construct: FAP-expressing human WI-38 fibroblasts (ECACC) were cultured in EMEM; host or cells: WI-38 human fibroblasts
Kind of test: Competitive FACS binding assay.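 Also: flow cytometry read-out of median Cy5 fluorescence on the cells, plotted versus test compound concentration, with IC50 derived by four-parameter logistic curve fitting.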 For orientation: A flow cytometer gives signals particle by particle.

[2] abbreviates: recombinant human FAP, FRET-peptide substrate, 37° C., read-out: pIC50 Category (Activity) (converted).
[3] abbreviates: competition with 3 nM Cy5-labeled compound, WI-38 fibroblasts, 4° C., 1 hour, read-out: pIC50 Category (FACS) (converted).

Read-outs that look alike come from different tables or passages of the source. *1 amine or outer side, *2 acyl side, *3 side chain or, on linkers, in order; H or OH if unused. Where a SMILES comes first, the peptide text is derived from it. Bridges are numbered along the chain shown (N, C = ends). [ ]: non-standard residue; d: D form. The star is where a group is joined. ξ: configuration not given here. X4 = O=C(O)CN1CCN(CC(=O)O)CCN(CC(=O)NCCCOCCOCCOCCCN*)CCN(CC(=O)O)CC1; X11 = O=C(O)CN1CCN(CC(=O)O)CCN([C@H](CCC(=O)*)C(=O)O)CC1; DOTA = O=C(O)CN1CCN(CC(=O)O)CCN(CC(=O)*)CCN(CC(=O)O)CC1; X2 = O=C1NC(=O)C([*:3])=C1CC[C@H](N[*:1])C(=O)[*:2]; Maleimide(3,4-diyl) = O=C1NC(=O)C([*:2])=C1[*:1]; X7 = CN1C(=O)C([*:1])=C([*:2])C1=O; ξThr(3R) = C[C@@H](O)C(N)C(=O)O; Suc = O=C(CCC(=O)[*:2])[*:1]; Nle = CCCC[C@H](N)C(=O)O; X3 = NCCNCC(CNCCN)C(=O)*; Hexanoyl = CCCCCC(=O)*; CO = O=C([*:1])[*:2]; ξP = O=C(O)C1CCCN1; NHBu = CCCCN*

T2 sequence (Q12884 whole entry): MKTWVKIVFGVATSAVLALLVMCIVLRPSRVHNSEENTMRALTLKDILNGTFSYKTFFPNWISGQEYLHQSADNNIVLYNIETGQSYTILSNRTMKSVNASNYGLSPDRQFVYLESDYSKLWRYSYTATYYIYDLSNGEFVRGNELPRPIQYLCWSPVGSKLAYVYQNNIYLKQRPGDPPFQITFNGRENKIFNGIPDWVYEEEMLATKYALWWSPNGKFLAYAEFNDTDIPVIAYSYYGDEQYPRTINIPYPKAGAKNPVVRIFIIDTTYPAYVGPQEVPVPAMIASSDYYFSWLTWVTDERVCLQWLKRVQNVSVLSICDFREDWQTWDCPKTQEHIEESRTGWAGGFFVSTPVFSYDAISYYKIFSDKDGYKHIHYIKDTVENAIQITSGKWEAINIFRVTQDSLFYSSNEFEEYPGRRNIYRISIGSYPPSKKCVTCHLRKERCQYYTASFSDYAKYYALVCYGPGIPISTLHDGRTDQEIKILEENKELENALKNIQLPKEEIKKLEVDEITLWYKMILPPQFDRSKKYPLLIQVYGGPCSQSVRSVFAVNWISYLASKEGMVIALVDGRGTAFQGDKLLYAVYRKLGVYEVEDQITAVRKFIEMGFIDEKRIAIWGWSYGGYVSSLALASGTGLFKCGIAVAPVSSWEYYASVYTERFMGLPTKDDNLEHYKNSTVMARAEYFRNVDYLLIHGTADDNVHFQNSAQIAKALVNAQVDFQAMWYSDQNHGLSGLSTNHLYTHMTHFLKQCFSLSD
T1 sequence (Q12884 26-760 limits assumed): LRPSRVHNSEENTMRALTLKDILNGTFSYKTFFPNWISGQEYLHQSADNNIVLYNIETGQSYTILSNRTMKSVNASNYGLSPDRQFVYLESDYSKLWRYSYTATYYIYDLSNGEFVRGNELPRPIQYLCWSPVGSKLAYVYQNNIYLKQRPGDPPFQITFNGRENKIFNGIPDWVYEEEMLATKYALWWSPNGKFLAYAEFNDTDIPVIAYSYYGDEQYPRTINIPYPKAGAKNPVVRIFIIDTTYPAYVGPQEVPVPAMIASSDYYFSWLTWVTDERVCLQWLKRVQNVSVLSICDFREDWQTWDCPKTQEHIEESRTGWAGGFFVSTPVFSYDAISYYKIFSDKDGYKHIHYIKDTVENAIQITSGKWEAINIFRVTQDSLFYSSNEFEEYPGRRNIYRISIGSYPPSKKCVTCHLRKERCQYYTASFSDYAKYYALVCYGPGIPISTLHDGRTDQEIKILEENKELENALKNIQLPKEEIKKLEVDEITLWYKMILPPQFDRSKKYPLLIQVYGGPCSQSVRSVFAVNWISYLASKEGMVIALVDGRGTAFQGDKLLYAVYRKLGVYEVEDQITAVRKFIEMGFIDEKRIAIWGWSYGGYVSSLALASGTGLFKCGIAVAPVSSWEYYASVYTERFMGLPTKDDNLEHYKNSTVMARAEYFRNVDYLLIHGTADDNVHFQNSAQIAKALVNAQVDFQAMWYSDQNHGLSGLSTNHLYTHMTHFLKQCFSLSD

Regarding `CCCCCC(=O)N[C@H]1CSC2=C(SC[C@@H](C(=O)N[C@@H](CCCCNC(=O)CN3CCN(CC(=O)O)CCN(CC(=O)O)CCN(CC(=O)O)CC3)CC(=O)O)NC(=O)[C@H](Cc3ccccc3)NC(=O)[C@H](CCC(N)=O)NC(=O)[C@H]([C@@H](C)O)NC(=O)[C@@H]3CCCN3C(=O)[C@@H]3CCCN3C1=O)C(=O)NC2=O` [Compound 2010, Hex-[Cys(mli)-Pro-Pro-Thr-Gln-Phe-Cys]-Bhk(DOTA)-OH], the IC50 (on Recombinant human FAP (setting [2]); in test [1] (setting [3])) was less than 100 nM throughout.
For the compound `CCCCCC(=O)N[C@H]1CSC2=C(SC[C@@H](C(=O)N[C@@H](CC(=O)O)C(=O)N[C@@H](CCCCNC(=O)CN3CCN(CC(=O)O)CCN(CC(=O)O)CCN(CC(=O)O)CC3)C(N)=O)NC(=O)[C@H](Cc3ccccc3)NC(=O)[C@H](CCC(N)=O)NC(=O)[C@H]([C@@H](C)O)NC(=O)[C@@H]3CCCN3C(=O)C3CCCN3C1=O)C(=O)NC2=O` (stereo partly drawn) [Compound 2012, Hex-[Cys(mli)-Pro-Pro-Thr-Gln-Phe-Cys]-Asp-Lys(DOTA)-NH2] (Hexanoyl-C[ξP]PTQFCDK(DOTA)-NH2; linker 1-7 via Maleimide(3,4-diyl)), the IC50 (at Recombinant human FAP (setting [2]); in test [1] (setting [3])) was less than 100 nM each time.
Regarding `CCCCNC(=O)N[C@H]1CSC2=C(SC[C@@H](C(=O)N[C@@H](CC(=O)O)C(=O)N[C@@H](CCCCNC(=O)CN3CCN(CC(=O)O)CCN(CC(=O)O)CCN(CC(=O)O)CC3)C(N)=O)NC(=O)[C@H](Cc3ccccc3)NC(=O)[C@H](CCC(N)=O)NC(=O)C([C@@H](C)O)NC(=O)[C@@H]3CCCN3C(=O)[C@@H]3CCCN3C1=O)C(=O)NC2=O` (stereo partly drawn) [Compound 2014, Buur-[Cys(mli)-Pro-Pro-Thr-Gln-Phe-Cys]-Asp-Lys(DOTA)-NH2] ({NHBu-CO}-CPP[ξThr(3R)]QFCDK(DOTA)-NH2; linker 1-7 via Maleimide(3,4-diyl)), the IC50 (on Recombinant human FAP (setting [2]); in test [1] (setting [3])) was less than 100 nM throughout.
Turning to `CCCCNC(=O)N[C@H]1CSC2=C(SC[C@@H](C(=O)N[C@@H](CC(=O)O)C(=O)N[C@@H](CCCCNC(=O)CN3CCN(CC(=O)O)CCN(CC(=O)O)CCN(CC(=O)O)CC3)C(N)=O)NC(=O)[C@H](Cc3ccccc3)NC(=O)[C@H](CCC(N)=O)NC(=O)C([C@@H](C)O)NC(=O)[C@@H]3CCCN3C(=O)[C@@H]3CCCN3C1=O)C(=O)N(C)C2=O` (stereo partly drawn) [Compound 2015, Hex-[Cys(mli(Me))-Pro-Pro-Thr-Gln-Phe-Cys]-Asp-Lys(DOTA)-NH2] ({NHBu-CO}-CPP[ξThr(3R)]QFCDK(DOTA)-NH2; linker 1-7 via X7), the IC50 (at Recombinant human FAP (setting [2]); in test [1] (setting [3])) was less than 100 nM each time.
Take `CCCC[C@H](NC(=O)CCC(=O)NCCCOCCOCCOCCCNC(=O)CN1CCN(CC(=O)O)CCN(CC(=O)O)CCN(CC(=O)O)CC1)C(=O)N[C@H]1CSC2=C(SC[C@@H](C(=O)N[C@@H](CC(=O)O)C(N)=O)NC(=O)[C@H](Cc3ccccc3)NC(=O)[C@H](CCC(N)=O)NC(=O)[C@H]([C@@H](C)O)NC(=O)[C@@H]3CCCN3C(=O)[C@@H]3CCCN3C1=O)C(=O)N(C)C2=O` [Compound 2016, DOTA-Ttds-Nle-[Cys(mli(Me))-Pro-Pro-Thr-Gln-Phe-Cys]-Asp-NH2] ({X4-Suc}-[Nle]CPPTQFCD-NH2; linker 2-8 via X7): the IC50 (at Recombinant human FAP (setting [2]); in test [1] (setting [3])) was less than 100 nM each time.
In the case of `CCCCCC(=O)N[C@H]1CSC2=C(SC[C@@H](C(=O)N[C@@H](CC(=O)O)C(N)=O)NC(=O)[C@H](Cc3ccccc3)NC(=O)[C@H](CCC(N)=O)NC(=O)[C@H]([C@@H](C)O)NC(=O)[C@@H]3CCCN3C(=O)[C@@H]3CCCN3C1=O)C(=O)N(CCCOCCOCCOCCCNC(=O)CN1CCN(CC(=O)O)CCN(CC(=O)O)CCN(CC(=O)O)CC1)C2=O` [Compound 2017, Hex-[Cys(mli(DOTA-Ttd))-Pro-Pro-Thr-Gln-Phe-Cys]-Asp-NH2] (HELM PEPTIDE1{[CCCCCC(=O)[*:2]].C.P.P.T.Q.F.C.D.[am]}|CHEM1{[O=C(O)CN1CCN(CC(=O)O)CCN(CC(=O)NCCCOCCOCCOCCCN2C(=O)C([*:1])=C([*:2])C2=O)CCN(CC(=O)O)CC1]}$PEPTIDE1,CHEM1,2:R3-1:R1|PEPTIDE1,CHEM1,8:R3-1:R2$$$V2.0), the IC50 (on Recombinant human FAP; in test [1]) was less than 100 nM in each case.
In the case of `CCCCCC(=O)N[C@H]1CSC2=C(SC[C@@H](C(=O)N[C@@H](CC(=O)O)C(N)=O)NC(=O)[C@H](Cc3ccccc3)NC(=O)[C@H](CCC(N)=O)NC(=O)[C@H]([C@@H](C)O)NC(=O)[C@@H]3CCCN3C(=O)[C@@H]3CCCN3C1=O)C(=O)N(CCCC(=O)CN1CCN(CC(=O)O)CCN(CC(=O)O)CCN(CC(=O)O)CC1)C2=O` [Compound 2018, Hex-[Cys(mli(DOTA-Eda))-Pro-Pro-Thr-Gln-Phe-Cys]-Asp-NH2] (HELM PEPTIDE1{[CCCCCC(=O)[*:2]].C.P.P.T.Q.F.C.D.[am]}|CHEM1{[O=C(O)CN1CCN(CC(=O)O)CCN(CC(=O)CCCN2C(=O)C([*:1])=C([*:2])C2=O)CCN(CC(=O)O)CC1]}$PEPTIDE1,CHEM1,2:R3-1:R1|PEPTIDE1,CHEM1,8:R3-1:R2$$$V2.0), the IC50 (at Recombinant human FAP; in test [1]) was less than 100 nM in each case.
For the compound `CCCCCC(=O)N[C@H]1CSC2=C(SC[C@@H](C(=O)O)NC(=O)[C@H](Cc3ccccc3)NC(=O)[C@H](CCC(N)=O)NC(=O)[C@H]([C@@H](C)O)NC(=O)[C@@H]3CCCN3C(=O)[C@@H]3CCCN3C1=O)C(=O)N(CCCOCCOCCOCCCNC(=O)CN1CCN(CC(=O)O)CCN(CC(=O)O)CCN(CC(=O)O)CC1)C2=O` [Compound 2019, Hex-[Cys(mli(DOTA-Ttd))-Pro-Pro-Thr-Gln-Phe-Cys]-OH], the IC50 (on Recombinant human FAP (setting [2]); in test [1] (setting [3])) was less than 100 nM in each case.
As for `CCCCCC(=O)N[C@H]1CSC2=C(SC[C@@H](C(=O)N[C@@H](CC(=O)O)C(N)=O)NC(=O)[C@H](Cc3ccccc3)NC(=O)[C@H](CCC(=O)O)NC(=O)[C@H]([C@@H](C)O)NC(=O)[C@@H]3CCCN3C(=O)[C@@H]3CCCN3C1=O)C(=O)N(CCCOCCOCCOCCCNC(=O)CN1CCN(CC(=O)O)CCN(CC(=O)O)CCN(CC(=O)O)CC1)C2=O` [Compound 2020, Hex-[Cys(mli(DOTA-Ttd))-Pro-Pro-Thr-Glu-Phe-Cys]-Asp-NH2] (HELM PEPTIDE1{[CCCCCC(=O)[*:2]].C.P.P.T.E.F.C.D.[am]}|CHEM1{[O=C(O)CN1CCN(CC(=O)O)CCN(CC(=O)NCCCOCCOCCOCCCN2C(=O)C([*:1])=C([*:2])C2=O)CCN(CC(=O)O)CC1]}$PEPTIDE1,CHEM1,2:R3-1:R1|PEPTIDE1,CHEM1,8:R3-1:R2$$$V2.0), the IC50 (on Recombinant human FAP (setting [2]); in test [1] (setting [3])) was less than 100 nM each time.
With `CCCC[C@H](NC(=O)CCC(=O)NCCCOCCOCCOCCCNC(=O)CC[C@H](C(=O)O)N1CCN(CC(=O)O)CCN(CC(=O)O)CC1)C(=O)N[C@H]1CSC2=C(SC[C@@H](C(=O)NCCC(=O)O)NC(=O)[C@H](Cc3ccccc3)NC(=O)[C@H](CCC(N)=O)NC(=O)[C@H]([C@@H](C)O)NC(=O)[C@@H]3CCCN3C(=O)[C@@H]3CCCN3C1=O)C(=O)NC2=O` [Compound 2021, NODAGA-Ttds-Nle-[Cys(mli)-Pro-Pro-Thr-Gln-Phe-Cys]-Bal-OH], the IC50 (at Recombinant human FAP (setting [2]); in test [1] (setting [3])) was less than 100 nM each time.
Turning to `CCCC[C@H](NC(=O)CCC(=O)NCCCOCCOCCOCCCNC(=O)C(CNCCN)CNCCN)C(=O)N[C@H]1CSC2=C(SC[C@@H](C(=O)NCCC(=O)O)NC(=O)[C@H](Cc3ccccc3)NC(=O)[C@H](CCC(N)=O)NC(=O)[C@H]([C@@H](C)O)NC(=O)[C@@H]3CCCN3C(=O)[C@@H]3CCCN3C1=O)C(=O)NC2=O` [Compound 2022, N4Ac-Ttds-Nle-[Cys(mli)-Pro-Pro-Thr-Gln-Phe-Cys]-Bal-OH], the IC50 (on Recombinant human FAP (setting [2]); in test [1] (setting [3])) was less than 100 nM each time.
Turning to `CCCCCC(=O)N[C@H]1CSC2=C(CC[C@@H](C(=O)N[C@@H](CC(=O)O)C(=O)N[C@@H](CCCCNC(=O)CC[C@H](C(=O)O)N3CCN(CC(=O)O)CCN(CC(=O)O)CC3)C(N)=O)NC(=O)[C@H](Cc3ccccc3)NC(=O)[C@H](CCC(N)=O)NC(=O)[C@H]([C@@H](C)O)NC(=O)[C@@H]3CCCN3C(=O)[C@@H]3CCCN3C1=O)C(=O)NC2=O` [Compound 2023, Hex-[Cys(mli)-Pro-Pro-Thr-Gln-Phe-Cys]-Asp-Lys(NODAGA)-NH2] (Hexanoyl-CPPTQF[X2]DK(X11)-NH2; thioether 1-7), the IC50 (at Recombinant human FAP (setting [2]); in test [1] (setting [3])) was less than 100 nM in each case.
As for `CCCCCC(=O)N[C@H]1CSC2=C(CC[C@@H](C(=O)N[C@@H](CC(=O)O)C(=O)N[C@@H](CCCCNC(=O)C(CNCCN)CNCCN)C(N)=O)NC(=O)[C@H](Cc3ccccc3)NC(=O)[C@H](CCC(N)=O)NC(=O)[C@H]([C@@H](C)O)NC(=O)[C@@H]3CCCN3C(=O)[C@@H]3CCCN3C1=O)C(=O)NC2=O` [Compound 2024, Hex-[Cys(mli)-Pro-Pro-Thr-Gln-Phe-Cys]-Asp-Lys(N4Ac)-NH2] (Hexanoyl-CPPTQF[X2]DK(X3)-NH2; thioether 1-7), the IC50 (at Recombinant human FAP (setting [2]); in test [1] (setting [3])) was less than 100 nM each time.
`CCCCCC(=O)N[C@H]1CSC2=C(SC[C@@H](C(=O)N[C@@H](CC(=O)O)C(N)=O)NC(=O)[C@H](Cc3ccccc3)NC(=O)[C@H](CCC(N)=O)NC(=O)[C@H]([C@@H](C)O)NC(=O)[C@@H]3CCCN3C(=O)[C@@H]3CCCN3C1=O)C(=O)N(CCCOCCOCCOCCCNC(=O)C(CNCCN)CNCCN)C2=O` [Compound 2026, Hex-[Cys(mli(N4Ac-Ttd))-Pro-Pro-Thr-Gln-Phe-Cys]-Asp-NH2] (HELM PEPTIDE1{[CCCCCC(=O)[*:2]].C.P.P.T.Q.F.C.D.[am]}|CHEM1{[NCCNCC(CNCCN)C(=O)NCCCOCCOCCOCCCN1C(=O)C([*:1])=C([*:2])C1=O]}$PEPTIDE1,CHEM1,2:R3-1:R1|PEPTIDE1,CHEM1,8:R3-1:R2$$$V2.0): the IC50 (on Recombinant human FAP; in test [1]) was less than 100 nM throughout.
